Data from PubChem BioAssay (NCI).
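Assay format: 96-well plates, 48-hour exposure. TGI marks complete inhibition of growth.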

Tests used:
Experiment in all cases: DTP human tumour cell line panel, 48 h
SK-MEL-5 melanoma = tested on: SK-MEL-5 melanoma
SF-295 CNS = tested on: SF-295 CNS
OVCAR-4 ovarian = tested on: OVCAR-4 ovarian
SW-620 colon = tested on: SW-620 colon
HOP-92 NSCLC = tested on: HOP-92 NSCLC
SNB-75 CNS = tested on: SNB-75 CNS
MDA-MB-231 breast = tested on: MDA-MB-231 breast
COLO 205 colon = tested on: COLO 205 colon
HCT-15 colon = tested on: HCT-15 colon
OVCAR-5 ovarian = tested on: OVCAR-5 ovarian
CCRF-CEM leukemia = tested on: CCRF-CEM leukemia
HCC-2998 colon = tested on: HCC-2998 colon
KM12 colon = tested on: KM12 colon
HCT-116 colon = tested on: HCT-116 colon
SN12C renal = tested on: SN12C renal
SNB-19 CNS = tested on: SNB-19 CNS
U251 CNS = tested on: U251 CNS
RPMI-8226 leukemia = tested on: RPMI-8226 leukemia
M14 melanoma = tested on: M14 melanoma
HL-60(TB) leukemia = tested on: HL-60(TB) leukemia
MCF7 breast = tested on: MCF7 breast
MOLT-4 leukemia = tested on: MOLT-4 leukemia
UACC-257 melanoma = tested on: UACC-257 melanoma
SK-MEL-28 melanoma = tested on: SK-MEL-28 melanoma
MDA-N = tested on: MDA-N
EKVX NSCLC = tested on: EKVX NSCLC
HS 578T breast = tested on: HS 578T breast
A498 renal = tested on: A498 renal
NCI-H522 lung = tested on: NCI-H522 lung
PC-3 prostate = tested on: PC-3 prostate
SK-MEL-2 melanoma = tested on: SK-MEL-2 melanoma
MDA-MB-435 = tested on: MDA-MB-435
OVCAR-8 ovarian = tested on: OVCAR-8 ovarian
HT29 colon = tested on: HT29 colon
UO-31 renal = tested on: UO-31 renal
SK-OV-3 ovarian = tested on: SK-OV-3 ovarian
A549 NSCLC = tested on: A549 NSCLC
OVCAR-3 ovarian = tested on: OVCAR-3 ovarian
NCI/ADR-RES ovarian = tested on: NCI/ADR-RES ovarian
BT-549 breast = tested on: BT-549 breast
HOP-62 NSCLC = tested on: HOP-62 NSCLC
SF-268 CNS = tested on: SF-268 CNS
LOX IMVI melanoma = tested on: LOX IMVI melanoma
UACC-62 melanoma = tested on: UACC-62 melanoma
MALME-3M melanoma = tested on: MALME-3M melanoma
CAKI-1 renal = tested on: CAKI-1 renal
NCI-H226 lung = tested on: NCI-H226 lung
SF-539 CNS = tested on: SF-539 CNS
NCI-H23 lung = tested on: NCI-H23 lung
DU-145 prostate = tested on: DU-145 prostate
ACHN renal = tested on: ACHN renal
TK-10 renal = tested on: TK-10 renal
786-0 renal = tested on: 786-0 renal
IGROV1 ovarian = tested on: IGROV1 ovarian
T-47D breast = tested on: T-47D breast
NCI-H460 lung = tested on: NCI-H460 lung

Measured: TGI

O=c1[nH]c(Nc2ccc(F)c(Cl)c2)nc2nc[nH]c12
97.8 µM: SNB-75 CNS
39.5 µM: MOLT-4 leukemia
> 100 µM: all other assays above
